The text below walks through data of PubChem BioAssay (NCI).

Some test systems named below: UACC-62 melanoma; NCI/ADR-RES ovarian; ACHN renal; TK-10 renal; MOLT-4 leukemia; HS 578T breast; BT-549 breast; MDA-MB-231 breast; A549 NSCLC; SF-268 CNS.
Holding throughout (experiment): NCI anticancer screen, dose series, 48 h

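Cultured in 96-well plates, cells were exposed to test compound for 48 hours across five concentrations. Abbreviation: GI50, concentration required for 50% inhibition of growth. TGI denotes the concentration required for complete inhibition of growth.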

Consider `OC(COc1cccc2ccccc12)CN1CCN(c2ccccc2)CC1` (stereo not drawn), for which the GI50 with UACC-62 melanoma was 14.1 µM; in the test with NCI/ADR-RES ovarian it was 15.4 µM; with ACHN renal, 16.2 µM; with TK-10 renal it was 13.6 µM; with MOLT-4 leukemia, 16.3 µM; with HS 578T breast it was 15.8 µM. Moreover, the GI50 in the test with BT-549 breast is 17.9 µM; in the test with MDA-MB-231 breast, 15.8 µM; in the test on A549 NSCLC, 19.3 µM; in the test on SF-268 CNS, 16.4 µM. Further, the TGI came to 28.5 µM in the test on UACC-62 melanoma; 30.4 µM with NCI/ADR-RES ovarian; 30.6 µM in the test with ACHN renal; 26.9 µM with TK-10 renal; 56.3 µM in the test with MOLT-4 leukemia; 47.3 µM with HS 578T breast. The TGI in the test on BT-549 breast turned out to be 32.2 µM; in the test on MDA-MB-231 breast, 31.8 µM; in the test on A549 NSCLC, 36.6 µM; in the test with SF-268 CNS, 31.3 µM.
For `CC(=O)OCC1OC(OC2=C(CC=C(Cl)Cl)C(=O)c3ccccc3C2=O)C(OC(C)=O)C(OC(C)=O)C1OC(C)=O` (stereo not drawn), the GI50 with UACC-62 melanoma is 2.85 µM; in the test on NCI/ADR-RES ovarian, 4.23 µM; in the test on ACHN renal it was 3.24 µM; in the test on TK-10 renal, 9.61 µM; in the test on MOLT-4 leukemia, 1.43 µM; with HS 578T breast, 3.98 µM. The GI50 was 7.03 µM with BT-549 breast, 2.05 µM in the test on MDA-MB-231 breast, 19.5 µM in the test on A549 NSCLC and 2.75 µM with SF-268 CNS. Moreover, the TGI with UACC-62 melanoma stood at 11.2 µM; with NCI/ADR-RES ovarian, 51.9 µM; with ACHN renal, 12 µM; in the test with TK-10 renal, 21.5 µM; in the test on MOLT-4 leukemia, 9.89 µM; in the test with HS 578T breast, 32.2 µM. In addition, the TGI was found to be 20.4 µM in the test on BT-549 breast, 5.62 µM with MDA-MB-231 breast, 41.4 µM in the test on A549 NSCLC and 8.03 µM with SF-268 CNS.
On to `C#COc1cccc(Nc2ncnc3ncc(NC(=O)CCl)cc23)c1`, for which the GI50 was above 36.1 µM in the test with UACC-62 melanoma; above 24.7 µM in the test with NCI/ADR-RES ovarian; 62 µM in the test on TK-10 renal; above 62.5 µM in the test with HS 578T breast; above 62.5 µM in the test with BT-549 breast; above 27.3 µM with MDA-MB-231 breast. The GI50 in the test on A549 NSCLC was above 13.8 µM; in the test with SF-268 CNS, above 22.3 µM. Further, the TGI with UACC-62 melanoma, in the test on NCI/ADR-RES ovarian, in the test with ACHN renal, with TK-10 renal, in the test with MOLT-4 leukemia and with HS 578T breast was above 62.5 µM in each case. For the same compound, the TGI with BT-549 breast, with MDA-MB-231 breast, with A549 NSCLC and in the test on SF-268 CNS was above 62.5 µM each time.
On to `CC1OC(OC2CC(O)C3(CO)C4C(O)CC5(C)C(C6=CC(=O)OC6)CCC5(O)C4CCC3(O)C2)C(O)C(O)C1O` (stereo not drawn), for which the GI50 in the test on UACC-62 melanoma was 0.0381 µM; in the test with NCI/ADR-RES ovarian it was below 0.0122 µM; in the test on ACHN renal, 0.01 µM; in the test with TK-10 renal, below 0.0105 µM; in the test with MOLT-4 leukemia, below 0.0123 µM; in the test with HS 578T breast it was below 0.0155 µM. For the same compound, the GI50 in the test with BT-549 breast was below 0.0129 µM; in the test on MDA-MB-231 breast, 0.129 µM; with A549 NSCLC, below 0.0109 µM; in the test with SF-268 CNS, below 0.0142 µM. Moreover, the TGI in the test on UACC-62 melanoma was 0.173 µM; with NCI/ADR-RES ovarian, below 0.0152 µM; in the test on ACHN renal it was 0.0191 µM; in the test with TK-10 renal, 0.0323 µM; with MOLT-4 leukemia it was 1.78 µM; in the test with HS 578T breast it was 0.304 µM. For the same compound, the TGI in the test with BT-549 breast is 0.0208 µM; with MDA-MB-231 breast, 0.641 µM; with A549 NSCLC it was below 0.0138 µM; in the test with SF-268 CNS, 0.0236 µM.
As for `COc1ccc(-c2nn(-c3cccc(NC(=O)Nc4cc(C(F)(F)F)cc(C(F)(F)F)c4)c3)cc2-c2ccncc2)cc1Cl`, the GI50 with UACC-62 melanoma was 0.948 µM; in the test on NCI/ADR-RES ovarian, 1.25 µM; in the test with ACHN renal, 1.14 µM; in the test with TK-10 renal it was 1.67 µM; in the test on MOLT-4 leukemia, 1.2 µM; in the test with HS 578T breast, 1.17 µM. Also, the GI50 with BT-549 breast was 1.35 µM; with MDA-MB-231 breast it was 0.85 µM; in the test on A549 NSCLC, 1.07 µM; in the test with SF-268 CNS it was 1.59 µM. Moreover, the TGI came out at 3.11 µM in the test with UACC-62 melanoma; 13.3 µM with NCI/ADR-RES ovarian; 50 µM in the test on ACHN renal; 10.9 µM in the test with TK-10 renal; 4 µM in the test with MOLT-4 leukemia; 5.52 µM in the test on HS 578T breast. Further, the TGI in the test with BT-549 breast came to 4.59 µM; with MDA-MB-231 breast, 2.12 µM; in the test on A549 NSCLC, 7.6 µM; in the test on SF-268 CNS, 8.68 µM.
As for `C=C1C(=O)O[C@@H]2C[C@@H]1CC[C@@]1(C)O[C@@H]1CC[C@@]1(C)O[C@@H]1CC[C@@]2(C)O`, the GI50 in the test with UACC-62 melanoma is 14.6 µM; with NCI/ADR-RES ovarian, 32.4 µM; with ACHN renal, 21.5 µM; in the test with TK-10 renal it was 23.4 µM; in the test with MOLT-4 leukemia, 10.1 µM; in the test on HS 578T breast it was 21.6 µM. Besides, the GI50 is 22.1 µM with BT-549 breast, 13.7 µM with MDA-MB-231 breast, 73.8 µM in the test on A549 NSCLC and 40.5 µM in the test on SF-268 CNS. In addition, the TGI amounted to 30.2 µM in the test with UACC-62 melanoma; 78.3 µM with NCI/ADR-RES ovarian; 66.4 µM in the test on ACHN renal; 67.6 µM in the test with TK-10 renal; 32.3 µM with MOLT-4 leukemia; 61.2 µM in the test on HS 578T breast. Moreover, the TGI was 59.6 µM in the test with BT-549 breast, 31.6 µM in the test on MDA-MB-231 breast, above 100 µM with A549 NSCLC and above 100 µM in the test with SF-268 CNS.
With `CC(=O)OC1CCC2(C)C(=CCC3C2CCC2(C)C(C(C)C(=O)O)CCC32)C1` (stereo not drawn), the TGI with UACC-62 melanoma, in the test on NCI/ADR-RES ovarian, in the test on ACHN renal, in the test with TK-10 renal, in the test with MOLT-4 leukemia and in the test with HS 578T breast was above 100 µM in each case. In addition, the TGI in the test on BT-549 breast, in the test on MDA-MB-231 breast, in the test on A549 NSCLC and in the test on SF-268 CNS was above 100 µM each time.
With `O=C(NNC(=O)c1ccncc1)c1ccncc1`, the TGI with UACC-62 melanoma, with NCI/ADR-RES ovarian, in the test with ACHN renal, with TK-10 renal, in the test on MOLT-4 leukemia and in the test on HS 578T breast was above 100 µM in each case. Besides, the TGI with BT-549 breast, with MDA-MB-231 breast, in the test with A549 NSCLC and in the test on SF-268 CNS was above 100 µM each time.
Consider `C=C1CCC2C3(C)COC(c4ccc(SC)cc4)OC3CCC2(C)C1C/C=C1/C(=O)OCC1O` (stereo not drawn), for which the GI50 in the test with UACC-62 melanoma was 5.45 µM; in the test on NCI/ADR-RES ovarian, 2.78 µM; in the test on ACHN renal, 6.25 µM; in the test with TK-10 renal, 14 µM; with MOLT-4 leukemia, 3.43 µM; with HS 578T breast, 5.17 µM. Further, the GI50 is 4.38 µM in the test on BT-549 breast, 5.52 µM in the test on MDA-MB-231 breast, 5.31 µM with A549 NSCLC and 6.8 µM with SF-268 CNS. Besides, the TGI in the test with UACC-62 melanoma was determined as 20.4 µM; with NCI/ADR-RES ovarian, 8.18 µM; with ACHN renal it was 17.2 µM; with TK-10 renal, 29.9 µM; in the test on MOLT-4 leukemia, 20.9 µM; in the test with HS 578T breast it was 17 µM. Further, the TGI in the test with BT-549 breast worked out at 20.9 µM; in the test on MDA-MB-231 breast, 16.5 µM; in the test on A549 NSCLC, 18.4 µM; in the test on SF-268 CNS, 19.9 µM.
As for `CC(=O)OC(C)(C)N=Nc1ccc(Br)cc1`, the TGI in the test with UACC-62 melanoma was above 100 µM; in the test with NCI/ADR-RES ovarian, 76.7 µM; in the test on ACHN renal, 23.1 µM; in the test on TK-10 renal, above 87.9 µM; in the test on MOLT-4 leukemia it was above 90.3 µM; with HS 578T breast it was above 100 µM. In addition, the TGI in the test with BT-549 breast, in the test with MDA-MB-231 breast, with A549 NSCLC and with SF-268 CNS was above 100 µM each time.
For `COc1cc(C2CC(c3cc(C)ccc3C)=NN2c2ccc(S(=O)(=O)NC(=O)NCc3ccccc3)cc2)cc(OC)c1OC` (stereo not drawn), the GI50 with UACC-62 melanoma was 1.98 µM; in the test on NCI/ADR-RES ovarian, 4.18 µM; in the test with ACHN renal, 3.47 µM; in the test with TK-10 renal, 4.74 µM; with MOLT-4 leukemia, 3.24 µM; in the test with HS 578T breast, 2.68 µM. Moreover, the GI50 in the test on BT-549 breast was 3.08 µM; in the test with MDA-MB-231 breast, 2.96 µM; in the test on A549 NSCLC, 3.31 µM; in the test with SF-268 CNS, 4.9 µM. Moreover, the TGI with UACC-62 melanoma stood at 4.48 µM; in the test with NCI/ADR-RES ovarian it was 31.7 µM; in the test with ACHN renal, 13.2 µM; in the test on TK-10 renal, 31 µM; with MOLT-4 leukemia, 25.2 µM; with HS 578T breast, 7.67 µM. Further, the TGI in the test on BT-549 breast was determined as 12.6 µM; in the test on MDA-MB-231 breast, 13.3 µM; in the test with A549 NSCLC, 14.4 µM; with SF-268 CNS, 34.8 µM.
For `CC(=O)OC[C@]12CC[C@@H]([C@@H](C)C(N)=O)[C@@H]1[C@H]1CC[C@@H]3[C@@]4(C)CC[C@H](OC(C)=O)C(C)(C)[C@@H]4CC[C@@]3(C)[C@]1(C)CC2`, the GI50 in the test with UACC-62 melanoma was 5.46 µM; in the test with NCI/ADR-RES ovarian, 7.74 µM; in the test with ACHN renal, 5.78 µM; in the test on TK-10 renal, 14.7 µM; with MOLT-4 leukemia, 3.29 µM; in the test on HS 578T breast, 12.4 µM. In addition, the GI50 with BT-549 breast was 8.17 µM; in the test with MDA-MB-231 breast, 11.8 µM; in the test with A549 NSCLC, 3.97 µM; with SF-268 CNS, 6.95 µM. Also, the TGI was found to be 19.5 µM in the test with UACC-62 melanoma; 27.2 µM in the test on NCI/ADR-RES ovarian; 27.3 µM in the test with ACHN renal; 39.8 µM in the test with TK-10 renal; 15.2 µM with MOLT-4 leukemia; 38.6 µM in the test on HS 578T breast. Also, the TGI in the test on BT-549 breast turned out to be 22.6 µM; with MDA-MB-231 breast, 30.8 µM; with A549 NSCLC, 47.5 µM; in the test with SF-268 CNS, 22.3 µM.
